Several values for one entry are separate records, joined by “and”; a condition that tells them apart may be missing. Identical values can stand only once. Inconclusive results and toxic doses are left out.
System: L1210 leukemia ip in BDF1 mice, survival T/C
Assay: NCI In Vivo Anticancer Drug Screen. Data for tumor model L1210 Leukemia (intraperitoneal) in B6D2F1 (BDF1) mice
Conditions: endpoint: mean survival time, higher = longer survival
Outline: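 Tumor was transplanted into mice, which were then dosed with test compound or vehicle alone. Survival was recorded for each group, and the treated figure was expressed relative to the control figure.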

[1] = dose: 100.0 mg/kg/injection, schedule: Q01DX001 (ip), vehicle: Klucel (hydroxypropylcellulose) (HPC)
[2] = dose: 200.0 mg/kg/injection, schedule: Q01DX001 (ip), vehicle: Klucel (hydroxypropylcellulose) (HPC)
[3] = dose: 100.0 mg/kg/injection, schedule: Q01DX009 (ip), vehicle: Klucel (hydroxypropylcellulose) (HPC)
[4] = dose: 200.0 mg/kg/injection, schedule: Q01DX009 (ip), vehicle: Klucel (hydroxypropylcellulose) (HPC)
[5] = dose: 400.0 mg/kg/injection, schedule: Q01DX009 (ip), vehicle: Klucel (hydroxypropylcellulose) (HPC)
[6] = dose: 50.0 mg/kg/injection, schedule: Q01DX009 (ip), vehicle: saline with Tween-80
[7] = dose: 100.0 mg/kg/injection, schedule: Q01DX009 (ip), vehicle: saline with Tween-80
[8] = dose: 200.0 mg/kg/injection, schedule: Q01DX009 (ip), vehicle: saline with Tween-80
[9] = dose: 50.0 mg/kg/injection, schedule: Q01DX009 (ip), vehicle: Klucel (hydroxypropylcellulose) (HPC)
[10] = dose: 12.5 mg/kg/injection, schedule: Q04DX003 (ip), vehicle: saline
[11] = dose: 25.0 mg/kg/injection, schedule: Q04DX003 (ip), vehicle: saline
[12] = dose: 75.0 mg/kg/injection, schedule: Q01DX001 (ip), vehicle: saline
[13] = dose: 100.0 mg/kg/injection, schedule: Q01DX001 (ip), vehicle: saline
[14] = dose: 200.0 mg/kg/injection, schedule: Q01DX001 (ip), vehicle: saline
[15] = dose: 400.0 mg/kg/injection, schedule: Q01DX001 (ip), vehicle: saline
[16] = dose: 50.0 mg/kg/injection, schedule: Q04DX003 (ip), vehicle: saline
[17] = dose: 100.0 mg/kg/injection, schedule: Q04DX003 (ip), vehicle: saline
[18] = dose: 200.0 mg/kg/injection, schedule: Q04DX003 (ip), vehicle: saline
[19] = dose: 400.0 mg/kg/injection, schedule: Q04DX003 (ip), vehicle: saline
[20] = dose: 100.0 mg/kg/injection, schedule: Q01DX009 (ip), vehicle: saline
[21] = dose: 200.0 mg/kg/injection, schedule: Q01DX009 (ip), vehicle: saline
[22] = dose: 50.0 mg/kg/injection, schedule: Q01DX009 (ip), vehicle: saline

Question: What does the source list for `COc1ccc(CCN2C(=O)c3cccc4c(Br)ccc(c34)C2=O)cc1`?
Answer: T/C (dose: 100.0 mg/kg/injection, schedule: Q04DX002 (ip), vehicle: saline): 93 % of control; T/C (dose: 200.0 mg/kg/injection, schedule: Q04DX002 (ip), vehicle: saline): 93 % of control; T/C (dose: 400.0 mg/kg/injection, schedule: Q04DX002 (ip), vehicle: saline): 97 % of control

Question: How did the T/C (dose: 100.0 mg/kg/injection, schedule: Q04DX002 (ip), vehicle: saline with Tween-80) turn out when `CC1CC(C(=O)O)Cc2c1nc1ccccc1c2C(=O)O` (stereo unspecified) was run?
Answer: 100 % of control

Question: What about the T/C (dose: 200.0 mg/kg/injection, schedule: Q04DX002 (ip), vehicle: saline with Tween-80) of the same molecule?
Answer: 93 % of control

Question: What about the T/C (dose: 400.0 mg/kg/injection, schedule: Q04DX002 (ip), vehicle: saline with Tween-80) of the same molecule?
Answer: 96 % of control

Question: Which results are given for `C=CC(COC(C)=O)N1CC1` (stereo unspecified) (tested in a mixture with another compound)?
Answer: T/C (dose: 30.0 mg/kg/injection, schedule: Q04DX003 (ip), vehicle: saline): 166 % of control; T/C (dose: 60.0 mg/kg/injection, schedule: Q04DX003 (ip), vehicle: saline): 107 % of control

Question: How did the T/C [1] turn out when `O=C1c2ccccc2C(=O)N1CCCCCCCCCCCCCCN1C(=O)c2ccccc2C1=O` was run?
Answer: 94 % of control

Question: And the T/C [2]?
Answer: 94 % of control

Question: What does the source list for `Nc1ncc(C(=O)O)s1`?
Answer: T/C [3]: 98 % of control; T/C [4]: 103 % of control; T/C [5]: 87 % of control

Question: What does the source list for `O=C(N/N=C/c1cccc(F)c1)c1ccccc1Cl`?
Answer: T/C [6]: 91 % of control; T/C [7]: 102 % of control; T/C [8]: 87 % of control

Question: Which T/C (dose: 100.0 mg/kg/injection, schedule: Q04DX003 (ip), vehicle: saline with Tween-80) does the source give for `CCCSCC` here?
Answer: 93 % of control

Question: And the T/C (dose: 200.0 mg/kg/injection, schedule: Q04DX003 (ip), vehicle: saline with Tween-80)?
Answer: 91 % of control

Question: What about the T/C (dose: 400.0 mg/kg/injection, schedule: Q04DX003 (ip), vehicle: saline with Tween-80) of the same molecule?
Answer: 101 % of control

Question: Which results are given for `C=C(CCCC)c1ccccc1`?
Answer: T/C [6]: 102 % of control; T/C [7]: 91 % of control; T/C [8]: 94 % of control

Question: For `COc1ccc(N=Nc2cc(C)c(C)cc2O)cc1`, which T/C [3] is on record?
Answer: 96 % of control

Question: And the T/C [4]?
Answer: 103 % of control

Question: And the T/C [5]?
Answer: 94 % of control

Question: `CCCCOS(=O)(=O)c1ccc(N)cc1` was tested. Which T/C [9] did it give?
Answer: 229 % of control

Question: And the T/C [3]?
Answer: 90 % of control

Question: And the T/C [4]?
Answer: 93 % of control

Question: How did the T/C (dose: 6.25 mg/kg/injection, schedule: Q04DX003 (ip), vehicle: saline) turn out when `Cc1c2cnccc2c(C)c2c1c1ccccc1n2CCCN` was run?
Answer: 97 % of control

Question: And the T/C [10]?
Answer: 97 % of control

Question: What about the T/C (dose: 25.0 mg/kg/injection, schedule: Q01DX001 (oral), vehicle: saline) of the same molecule?
Answer: 96 % of control

Question: And the T/C [11]?
Answer: 89 % of control

Question: What about the T/C (dose: 50.0 mg/kg/injection, schedule: Q01DX001 (oral), vehicle: saline) of the same molecule?
Answer: 100 % of control

Question: And the T/C (dose: 75.0 mg/kg/injection, schedule: Q01DX001 (oral), vehicle: saline)?
Answer: 105 % of control

Question: And the T/C (dose: 100.0 mg/kg/injection, schedule: Q01DX001 (oral), vehicle: saline)?
Answer: 86 % of control

Question: And the T/C (dose: 200.0 mg/kg/injection, schedule: Q01DX001 (oral), vehicle: saline)?
Answer: 96 % of control

Question: What does the source list for `ClCCCC#Cc1ccccc1`?
Answer: T/C [9]: 101 % of control; T/C [1]: 90 % of control; T/C [3]: 101 % of control; T/C [2]: 98 % of control; T/C [4]: 110 % of control

Question: `CN1C2CCCCC1C1CCCCC2[N+]1(C)C` was tested. Which T/C [12] did it give?
Answer: 96 % of control

Question: For `O=C(OCCCl)c1ccco1`, which T/C [13] is on record?
Answer: 102 % of control

Question: What about the T/C [14] of the same molecule?
Answer: 102 % of control

Question: What about the T/C [15] of the same molecule?
Answer: 107 % of control

Question: What does the source list for `CN1CCN(C(=O)N2c3ccccc3Sc3ccccc32)CC1`?
Answer: T/C [10]: 99 % of control; T/C [11]: 95 % of control; T/C [16]: 101 % of control; T/C [17]: 100 % of control; T/C [18]: 92 % of control

Question: Which T/C [17] does the source give for `COc1cc([N+](=O)[O-])c(O)cc1O` here?
Answer: 101 % of control

Question: And the T/C [18]?
Answer: 100 % of control

Question: What about the T/C [19] of the same molecule?
Answer: 96 % of control

Question: Which T/C [13] does the source give for `COc1ccccc1CN1CCCN(Cc2ccccc2OC)C1c1ccc(N(CCCl)CCCl)cc1C` here?
Answer: 88 % of control

Question: And the T/C [20]?
Answer: 98 % of control

Question: What about the T/C [14] of the same molecule?
Answer: 88 % of control

Question: What about the T/C [21] of the same molecule?
Answer: 95 % of control

Question: And the T/C [15]?
Answer: 87 % of control

Question: With `O=Nc1ccc(O)c(=O)cc1` as the molecule, how does the T/C (dose: 1.0 mg/kg/injection, schedule: Q01DX009 (ip), vehicle: saline) read?
Answer: 90 % of control

Question: What about the T/C (dose: 1.0 mg/kg/injection, schedule: Q04DX003 (ip), vehicle: saline) of the same molecule?
Answer: 100 % of control

Question: What about the T/C (dose: 2.0 mg/kg/injection, schedule: Q01DX009 (ip), vehicle: saline) of the same molecule?
Answer: 90 % of control

Question: And the T/C (dose: 2.0 mg/kg/injection, schedule: Q04DX003 (ip), vehicle: saline)?
Answer: 97 % of control

Question: What about the T/C (dose: 4.0 mg/kg/injection, schedule: Q01DX009 (ip), vehicle: saline) of the same molecule?
Answer: 97 % of control

Question: What about the T/C (dose: 4.0 mg/kg/injection, schedule: Q04DX003 (ip), vehicle: saline) of the same molecule?
Answer: 109 % of control

Question: Which T/C [22] does the source give for `COC(=O)CC(=O)C(Cl)C(=O)OC` (stereo unspecified) here?
Answer: 97 % of control

Question: What about the T/C [20] of the same molecule?
Answer: 108 % of control

Question: Which results are given for `CC[P+](CC)(CC)CCCCI`?
Answer: T/C (dose: 12.0 mg/kg/injection, schedule: Q01DX009 (ip), vehicle: saline): 94 % of control; T/C (dose: 25.0 mg/kg/injection, schedule: Q01DX009 (ip), vehicle: saline): 101 % of control; T/C [11]: 105 % of control; T/C [22]: 101 % of control and 91 % of control; T/C [16]: 114 % of control

Question: `CC(C)(C)OC(=O)CCN1CC1` was tested. Which T/C [12] did it give?
Answer: 109 % of control

Question: What about the T/C (dose: 150.0 mg/kg/injection, schedule: Q01DX001 (ip), vehicle: saline) of the same molecule?
Answer: 104 % of control

Question: What does the source list for `CCOc1ccc(NC(=O)NCBr)cc1`?
Answer: T/C (dose: 12.5 mg/kg/injection, schedule: Q01DX009 (ip), vehicle: saline with Tween-80): 106 % of control; T/C (dose: 25.0 mg/kg/injection, schedule: Q01DX009 (ip), vehicle: saline with Tween-80): 95 % of control; T/C [6]: 87 % of control; T/C [7]: 87 % of control

Question: Which results are given for `CN(C)c1n[nH]c(=O)[nH]c1=O`?
Answer: T/C [13]: 91 % of control; T/C [14]: 114 % of control; T/C [15]: 93 % of control

Question: With `CC(C)OC(CCC#N)c1ccccc1` (stereo unspecified) as the molecule, how does the T/C [3] read?
Answer: 101 % of control

Question: And the T/C (dose: 100.0 mg/kg/injection, schedule: Q04DX003 (ip), vehicle: Klucel (hydroxypropylcellulose) (HPC))?
Answer: 102 % of control

Question: And the T/C [4]?
Answer: 98 % of control

Question: And the T/C (dose: 200.0 mg/kg/injection, schedule: Q04DX003 (ip), vehicle: Klucel (hydroxypropylcellulose) (HPC))?
Answer: 96 % of control

Question: What about the T/C (dose: 400.0 mg/kg/injection, schedule: Q04DX003 (ip), vehicle: Klucel (hydroxypropylcellulose) (HPC)) of the same molecule?
Answer: 102 % of control

Question: For `CCCCCCCCCCCCCCCCCCOc1cccc(C(F)(F)F)c1`, which T/C (dose: 100.0 mg/kg/injection, schedule: Q01DX001 (ip), vehicle: saline with Tween-80) is on record?
Answer: 89 % of control

Question: What about the T/C (dose: 200.0 mg/kg/injection, schedule: Q01DX001 (ip), vehicle: saline with Tween-80) of the same molecule?
Answer: 91 % of control

Question: How did the T/C (dose: 100.0 mg/kg/injection, schedule: Q01DX001 (sc), vehicle: steriod suspending solution) turn out when `C[C@H]1CC[C@@H]2[C@@H](C)[C@H]3[C@H](C[C@H]4[C@@H]5CC=C6C[C@@H](O)CC[C@]6(C)[C@H]5C[C@H](O)[C@]34C)N2C1` was run?
Answer: 100 % of control

Question: What about the T/C (dose: 200.0 mg/kg/injection, schedule: Q01DX001 (sc), vehicle: steriod suspending solution) of the same molecule?
Answer: 91 % of control

Question: What about the T/C (dose: 400.0 mg/kg/injection, schedule: Q01DX001 (sc), vehicle: steriod suspending solution) of the same molecule?
Answer: 91 % of control

Question: How did the T/C [22] turn out when `OCC1=CC(O)C2C=COC(C3OC(CO)C(O)C(O)C3O)C12` (stereo unspecified) was run?
Answer: 96 % of control

Question: And the T/C [20]?
Answer: 96 % of control

Question: What about the T/C [17] of the same molecule?
Answer: 96 % of control

Question: What about the T/C [21] of the same molecule?
Answer: 95 % of control

Question: What about the T/C [18] of the same molecule?
Answer: 100 % of control

Question: And the T/C [19]?
Answer: 100 % of control
